Publication PMC7048748, “Anxiolytic Drug FGIN-1-27 Ameliorates Autoimmunity by Metabolic Reprogramming of Pathogenic Th17 Cells” (Scientific Reports, 2020)

Assays:
Assay type in all cases: cell-based, mouse
[1] = test system: Th17 cells; assay: Th17 differentiation assay, intracellular IL-17 by flow cytometry
Experimental: Because of differential TSPO expression in Th17 cells (Fig. S1a) and up-regulation of TSPO in neuroinflammation, we tested whether TSPO ligands, such as FGIN-1-27, can affect Th17 differentiation. In this assay, purified CD4^+ T cells from mouse spleens and lymph nodes were cultured under Th17 polarizing conditions. […] FGIN-1-27 treatment had no effect on protein or transcript levels of RORγt, the Th17 lineage-determining transcription factor.
Figure 1 FGIN-1-27 Inhibits Th17 Differentiation. Naïve CD4 T cells from spleens and lymph nodes of C57BL/6 mice were differentiated under Th17 polarization conditions and were treated with DMSO (control) or FGIN-1-27. (a) Dose response plot showing effect of FGIN-1-27 on intracellular IL-17 and viability on day 4 post activation quantified by flow cytometry. Data is normalized against DMSO (100%). […] (b) Dot plots showing DMSO or FGIN-1-27 treated cells stained for surface CD4, CD44, intracellular IL-17 and intranuclear RORγt. (c) Transcript levels for the indicated genes after 24 hours of treatment with DMSO or FGIN-1-27 quantified by qPCR. Data was normalized to a housekeeping gene, β-actin. Data are representative of at least 3 independent experiments and the error bars indicate standard deviation.
Single cell suspensions were prepared from spleens and lymph nodes of mice by mechanical disruption. Red blood cells were lysed by ammonium chloride followed by CD4^+ T cell purification using either CD4 microbeads (Miltenyi Biotec) or sorting for naïve CD4^+ T cells (FACS Aria). 250,000 cells/well in a 48 well plate were polarized into Th17 cells using Th17 differentiation cocktail: IFNγ, IL-4, IL-12 neutralizing antibodies (10 μg/ml) and 10 ng/ml each of IL-6, IL-1b, IL-21 and TGF-β (0.5 ng/ml). Cells were treated with FGIN-1-27 (Tocris Bioscience) or DMSO at 18 hour and 48 hours post cell plating. On day 4 of culture, cells were re-stimulated with PMA-ionomycin in the presence of brefeldin A. Cells were subsequently stained with viability dye and surface stained for CD44, CD4 followed by permeabilization using cytofix/cytoperm (BD biosciences) and stained for intracellular IL-17. RORγt intranuclear staining was performed after fixation and permeabilization with a Foxp3/Transcription Factor Staining kit (eBioscience). Cells were acquired on BD Fortessa followed by analysis using Flowjo (Tree star Inc).

[2] = test system: reactive oxygen species (ROS); assay: Intracellular ROS with DCFDA; settings: 24-hour post treatment, 5 and 10 µM
Experimental: Figure 5 FGIN-1-27 induces amino acid starvation response (AAR). (a) MA-plot showing shrunken log2 fold-changes of detected genes between the DMSO and FGIN-1-27 RNA-seq samples, ranked by average normalized count. […] (b) Transcript levels for the indicated genes after 24 hours of treatment with DMSO or FGIN-1-27 quantified by qPCR. The error bars represent SD. (c) Western blot analysis for phosphorylated eIF2α and ATF4 24 hours after treatment with DMSO or FGIN-1-27 (5 and 10 μM). Data are representative of 3 independent experiments. (d) Amino acids in Th17 cells measured 72 hours after treatment with FGIN-1-27. The error bars represent SD. (e) ROS was measured using cell permeant reagent 2',7' -dichlorofluorescin diacetate (DCFDA) at 24 hours following treatment with FGIN-1-27. Filled grey histogram-DMSO, dotted line-FGIN-1-27 (10 μM) and dashed line indicates FGIN-1-27 (5 μM). (f) Dose response plot showing effect of FGIN-1-27 on intracellular IL-17 after pre-treatment with NAC (1 μM). Data are normalized using DMSO treated cells as 100% and the error bars represent SD. Increased amino acid synthesis and transport is characteristic of the amino acid starvation response (AAR)[20]. […] Induction of ATF4 can be an indication of oxidative stress and we measured reactive oxygen species (ROS) using the cell permeant reagent 2',7' -dichlorofluorescin diacetate (DCFDA).

[3] = test system: Th17 cells; assay: Cholesterol panel (sterols) in Th17 cells; settings: 72 hours; for 7-DHC / 7-HC / -SITO / CAMP / CHOL / COPR / CSTN: Cholestanol / DESM / LANO / LATH / SQUA / STIG / ZYMO: Cell
Experimental: Specific cholesterol precursors like desmosterol and oxysterols, such as 7β, 27-dihydroxycholesterol (7β, 27-OHC), have been identified as ligands for RORγt[21],[22] and shown to modulate Th17 differentiation. […] Next, we extended our studies to lipid metabolites and profiled the lipidome of Th17 cells treated with DMSO or FGIN-1-27. […]
(a) Indicated sterols were measured in Th17 cells treated with DMSO or FGIN-1-27 for
(1 picture or pasted object on this page, not shown here)

CCCCCCN(CCCCCC)C(=O)Cc1c(-c2ccc(F)cc2)[nH]c2ccccc12 [FGIN-1-27, N, N-di-n-hexyl 2-(4-fluorophenyl) indole-3-acetamide]
protein or transcript levels of RORγt [1]: no effect
proliferation (CFSE dilution) ([1]; 72 hours post treatment): proliferated to the same extent as DMSO treated cells
IC50 ([1]; Mus musculus, 96 h, day 4 post activation, normalized against DMSO (100%)): 4.85 µM
viability ([1]; Th17 polarizing conditions): without compromising viability
IL-17 producing cells abolished ([1]; compared to DMSO treated cultures): 85%
CD4 / CD44 dot plot, percent of cells ([1]; treated cells, Fig. 1b): 98%
IL-17 / RORγt dot plot, percent of cells ([1]; treated cells, Fig. 1b): 8.0%
intracellular ROS levels [2]: dose dependent increase
levels of cholesterol, its precursors and oxysterols ([3]; vs DMSO): comparable
7-DHC [3]: 21.45 nMoles/billion
7-HC [3]: 0.68 nMoles/billion
-SITO [3]: 1.81 nMoles/billion
CAMP [3]: 4.37 nMoles/billion
CHOL [3]: 1426.96 nMoles/billion
COPR [3]: 0.37 nMoles/billion
CSTN: Cholestanol [3]: 2.54 nMoles/billion
DESM [3]: 26.06 nMoles/billion
LANO [3]: 0.57 nMoles/billion
LATH [3]: 10.58 nMoles/billion
SQUA [3]: 13.58 nMoles/billion
STIG [3]: 0.09 nMoles/billion
ZYMO [3]: 0.37 nMoles/billion
7-DHC ([3]; listed as FGIN2): 29.74 nMoles/billion
7-HC ([3]; listed as FGIN2): 1.01 nMoles/billion
-SITO ([3]; listed as FGIN2): 66.45 nMoles/billion
CAMP ([3]; listed as FGIN2): 6.00 nMoles/billion
CHOL ([3]; listed as FGIN2): 1968.79 nMoles/billion
COPR ([3]; listed as FGIN2): 0.04 nMoles/billion
CSTN: Cholestanol ([3]; listed as FGIN2): 5.53 nMoles/billion
DESM ([3]; listed as FGIN2): 47.55 nMoles/billion
LANO ([3]; listed as FGIN2): 0.96 nMoles/billion
LATH ([3]; listed as FGIN2): 13.90 nMoles/billion
SQUA ([3]; listed as FGIN2): 16.54 nMoles/billion
STIG ([3]; listed as FGIN2): 8.18 nMoles/billion
ZYMO ([3]; listed as FGIN2): 0.44 nMoles/billion
7-DHC ([3]; listed as FGIN3): 22.18 nMoles/billion
7-HC ([3]; listed as FGIN3): 1.04 nMoles/billion
-SITO ([3]; listed as FGIN3): 2.54 nMoles/billion
CAMP ([3]; listed as FGIN3): 7.76 nMoles/billion
CHOL ([3]; listed as FGIN3): 2113.85 nMoles/billion
COPR ([3]; listed as FGIN3): 0.0757 nMoles/billion
CSTN: Cholestanol ([3]; listed as FGIN3): 4.07 nMoles/billion
DESM ([3]; listed as FGIN3): 37.52 nMoles/billion
LANO ([3]; listed as FGIN3): 0.93 nMoles/billion
LATH ([3]; listed as FGIN3): 15.86 nMoles/billion
SQUA ([3]; listed as FGIN3): 17.48 nMoles/billion
STIG ([3]; listed as FGIN3): 0.73 nMoles/billion
ZYMO ([3]; listed as FGIN3): 0.68 nMoles/billion
7-DHC ([3]; listed as FGIN4): 17.23 nMoles/billion
7-HC ([3]; listed as FGIN4): 0.75 nMoles/billion
-SITO ([3]; listed as FGIN4): 1.38 nMoles/billion
CAMP ([3]; listed as FGIN4): 4.69 nMoles/billion
CHOL ([3]; listed as FGIN4): 1456.01 nMoles/billion
COPR ([3]; listed as FGIN4): 0.06 nMoles/billion
CSTN: Cholestanol ([3]; listed as FGIN4): 2.93 nMoles/billion
DESM ([3]; listed as FGIN4): 26.10 nMoles/billion
LANO ([3]; listed as FGIN4): 0.61 nMoles/billion
LATH ([3]; listed as FGIN4): 10.88 nMoles/billion
SQUA ([3]; listed as FGIN4): 2.92 nMoles/billion
STIG ([3]; listed as FGIN4): 0.05 nMoles/billion
ZYMO ([3]; listed as FGIN4): 0.40 nMoles/billion
